Measurements from US10822376B2, “Biologically active peptides” (Baxalta Incorporated, priority 2008, dated 2020).

System: FIX−/− mice
Assay: Tail clip assay in FIX−/− mice (blood loss, survival)
Format: in vivo, mouse

Substance: Ac-RMKFDVWDLYFEIVW-NH2 [Peptide A01]
- Survival vs vehicle alone (20 mg/kg i.v.): no significant difference
- Mean volume of blood loss following tail clip compared to vehicle control (20 mg/kg i.v. five minutes before tail clip, any time points): not significantly different
- Effect in FIX−/− mice (conclusion): no effect
